Measurements as given in paper PMC2864270 (PLoS Neglected Tropical Diseases, 2010).
Where two headings read alike, the source gives them in different places.

Legend:
[1] = Microsomal stability assay, human liver microsomes; assay type: in vitro ADME; conditions: 2 µM compound, 0.5 mg/mL microsomes; for parent compound remaining after 30 minutes, human liver microsomes: NADPH
Method: (§1) Compounds at a concentration of 2 µM in 0.2% DMSO were incubated with 0.5 mg/mL rat (Sprague-Dawley Rat, BD Gentest) and human (human pool donors, BD Gentest) liver microsomes in potassium phosphate buffer in a reaction started by the addition of NADPH and stopped either immediately or at 5, 10, 30, 60 or 120 minutes for a precise estimate of microsomal stability. The corresponding loss of the parent compound was determined by a quadrupole liquid chromatography-mass spectrometry (LC-MS) with diode-array detection (Agilent 1200, Agilent Technology). The samples were passed through trapping cartridges (Security Guard Cartridge, Gemini C18, 4×2.0 mm, 3 µm, Phenomenex) followed by an analytical column (Gemini C18, 50×2.0 mm, 3 µm, Phenomenex). Positive electrospray ionization (ESI+) was employed for this analysis. The mobile phases A (water with 0.1% formic acid) and B (acetonitrile with 0.1% formic acid) were used at a flow rate of 0.3 mL/min. Gradient elution started with 95% mobile phase A and 5% mobile phase B. Elution was changed to a linear gradient until 50% A and B for 1 min. This condition was held for 0.5 min, then increased to 95% B over 0.5 min, and held for 1.5 min. Then, the elution gradient returned to 95% A and 5% B over 0.5 min, was held for the remaining 3.5 min. The percentage of the remaining compound was calculated by comparison with the initial quantity at 0 min. Half-life was calculated based on first-order reaction kinetics.

[2] = Microsomal stability assay, rat liver microsomes; assay type: in vitro ADME, Sprague-Dawley Rat; conditions: 2 µM compound, 0.5 mg/mL microsomes; for half-life at 2 µM: Sprague-Dawley, rat, liver microsomes, first-order kinetics, read-out: theoretical half-life, rat liver microsomes
Method: as §1

L. donovani promastigote = experiment: Resazurin viability assay, L. donovani promastigotes; assay type: cell-based; conditions: Leishmania donovani
Method: (§2) L. major MHOM/IL/81/FRIEDLIN and L. donovani MHOM/ET/67/HU3 promastigotes were cultivated at 28°C in axenic M199 culture medium (Welgene, S. Korea) supplemented with 10% heat-inactivated fetal bovine serum (FBS) (Gibco, United States) and 1% streptomycin/penicillin (Gibco, United States).
After compound addition to the assay plate (Evotec™ 384-well microplate, Germany), 20,000 L. major promastigote parasites from an exponential phase culture (∼10^7 parasites/mL) were diluted in M199, seeded in 50 µL per well using FlexDrop™ and incubated at 28°C for 28 hours, followed by the addition of 5 mM resazurin sodium salt (Sigma R7017, United States) and further incubation for 20 hours at 28°C. After a 48-hour exposure to compounds, the reference drug (EtBr) or control (1% DMSO), the parasites were fixed with 2% paraformaldehyde (PFA) and plates were read in Victor3™ (Perkin Elmer) at 530 nm (excitation) and 590 nm (emission). This fixation step is not necessary for resazurin readout, but allows flexibility in the automation schedule and increases assay robustness by decreasing metabolic variability between populations across wells and plates. Z-factor, calculated as 1−(3×σp+3×σn)/(|μp−μn|), where μp, σp, μn and σn are the means (μ) and standard deviations (σ) of both the positive (p) and negative (n) controls, and other parameters, including DRC plates for verification of the reference drug EC50 (accepted if within the range of 3× higher or lower than a defined value from the literature), coefficient of variation not higher than 10% in the controls and edge effect evaluation, were used for screening validation and hits selection.
Infection of human macrophage cells in vitro with Leishmania has been previously described as a suitable model for screening and was adopted for our purpose. The 124 active compounds selected from the secondary assay were tested in 10-point dose response with 2-fold serial dilutions starting from 20 µM against promastigotes and intracellular amastigotes of L. major and L. donovani infecting macrophages. The average Z-factor calculated per plate based on the reference drug (amphotericin B) and carrier (1% DMSO) was 0.62 for L. major infection and 0.59 for L. donovani infection, and minimum accepted Z-factor for the analysis was 0.5.

CYP3A4 = CYP3A4 (Homo sapiens, UniProt P08684); experiment: CYP450 inhibition assay, fluorescent probe BFC; assay type: in vitro ADME; conditions: for IC50: individual human P450s, eight-point curve
Sequence of CYP3A4 (P08684 whole entry): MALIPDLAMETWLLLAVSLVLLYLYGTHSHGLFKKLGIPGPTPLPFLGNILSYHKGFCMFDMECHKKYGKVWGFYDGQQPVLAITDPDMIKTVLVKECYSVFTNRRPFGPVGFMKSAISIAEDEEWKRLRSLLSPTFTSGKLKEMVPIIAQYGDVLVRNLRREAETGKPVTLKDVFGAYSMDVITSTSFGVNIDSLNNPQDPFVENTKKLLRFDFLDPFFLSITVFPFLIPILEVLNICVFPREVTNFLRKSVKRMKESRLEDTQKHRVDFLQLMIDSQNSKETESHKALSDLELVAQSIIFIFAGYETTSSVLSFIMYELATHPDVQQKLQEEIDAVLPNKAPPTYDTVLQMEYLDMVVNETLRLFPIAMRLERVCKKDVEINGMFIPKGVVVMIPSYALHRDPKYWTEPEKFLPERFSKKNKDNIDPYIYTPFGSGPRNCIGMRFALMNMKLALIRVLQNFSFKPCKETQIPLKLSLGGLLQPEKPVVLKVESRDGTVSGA
Method: (§3) Individual fluorescent probe substrates were used with individual rhCYP isozymes and fluorescence detection according to a previously published method. Probe substrates were 7-benzyloxy-4-(trifluoromethyl)-coumarin (BFC) for CYP3A4 and 3-[2-(N,N-diethyl-N-methylammonium)ethyl]-7-methoxy-4-methylcoumarin (AMMC) for CYP2D6 in 0.5% DMSO. IC50 was determined using an eight-point concentration curve with three-fold serial dilutions. Victor3™ (Perkin Elmer) was used for quantification in the fluorescent method (Perkin Elmer Life and Analytical Sciences).

[3] = tested on: L. major intracellular amastigotes; experiment: Intracellular amastigotes assay, L. major infecting THP-1 macrophages (image-based infection ratio); assay type: cell-based; conditions: Leishmania major, 96 h, intracellular amastigotes infecting THP-1 macrophages, 4 days incubation, read-out: L. major EC50 amastigote
Method: (§4) THP-1 cells were cultivated in suspension at a density of 10^5 to 10^6 cells/mL in RPMI (Gibco 1640, United States) medium supplemented with 10% heat-inactivated FBS and 1% streptomycin/penicillin at 37°C and 5% CO2. The differentiation of THP-1 into macrophages was induced by incubation of the cells for 48 hours with phorbol 12-myristate 13-acetate (PMA) at 50 ng/ml. For infection, late-stage L. major or L. donovani rich in metacyclic promastigotes was added to differentiated THP-1 cells (ratio of 50 parasites to 1 host cell) in Evotec™ 384-well microplates using a FlexDrop™ (Perkin Elmer) to dispense 50 µL/well. Compounds were added 24 hours after infection and microplates were incubated at 37°C and 5% CO2 for 4 days. Amphotericin B as the reference compound (positive control) at 10 µM as the EC100 and 1% DMSO (negative control) were used in all the plates for data normalization (see bellow). […] Microplates were read in an Opera confocal microscope (Perkin Elmer), enabling the determination of the infection ratio of the parasites by image analysis. […] The macrophage nuclei and internalized parasites were identified and counted if localized in the foreground previously selected (Figure S1). With this technique, extracellular parasites were not considered in the calculations, and the infection ratio was determined by the number of infected cells divided by the total number of cells after normalization based on the controls. The average infection ratios from the positive and negative controls were normalized to 0% and 100% infection, and the infection ratio read from each compound activity was proportionally distributed within this range. […]
(§5) Infection of human macrophage cells in vitro with Leishmania has been previously described as a suitable model for screening and was adopted for our purpose. […] The average Z-factor calculated per plate based on the reference drug (amphotericin B) and carrier (1% DMSO) was 0.62 for L. major infection and 0.59 for L. donovani infection, and minimum accepted Z-factor for the analysis was 0.5.

[4] = Human cell toxicity test, resazurin viability; assay type: cell-based; conditions: THP-1 cells (non-differentiated); THP-1 human cell line; read-out: Cytotoxicity CC50 THP-1
Method: To assess the cytotoxicity of compounds on THP-1, an acute monocytic leukemia-derived human cell line (ATCC TIB-202™), a viability assay also using resazurin reduction with minor modifications in concentration and incubation time was performed. Z-factor [15] and other parameters were used for secondary screening validation and hit exclusion.
To exclude potentially toxic compounds from the active list, we performed a secondary viability screening using the non-differentiated human macrophage cell line THP-1. Compounds that interfered with THP-1 viability at a concentration of 10 µM or lower were discarded.

CYP2D6 = CYP2D6 (Homo sapiens, UniProt P10635); experiment: CYP450 inhibition assay, fluorescent probe AMMC; assay type: in vitro ADME; conditions: for IC50: individual human P450s, eight-point curve
Sequence of CYP2D6 (P10635 whole entry): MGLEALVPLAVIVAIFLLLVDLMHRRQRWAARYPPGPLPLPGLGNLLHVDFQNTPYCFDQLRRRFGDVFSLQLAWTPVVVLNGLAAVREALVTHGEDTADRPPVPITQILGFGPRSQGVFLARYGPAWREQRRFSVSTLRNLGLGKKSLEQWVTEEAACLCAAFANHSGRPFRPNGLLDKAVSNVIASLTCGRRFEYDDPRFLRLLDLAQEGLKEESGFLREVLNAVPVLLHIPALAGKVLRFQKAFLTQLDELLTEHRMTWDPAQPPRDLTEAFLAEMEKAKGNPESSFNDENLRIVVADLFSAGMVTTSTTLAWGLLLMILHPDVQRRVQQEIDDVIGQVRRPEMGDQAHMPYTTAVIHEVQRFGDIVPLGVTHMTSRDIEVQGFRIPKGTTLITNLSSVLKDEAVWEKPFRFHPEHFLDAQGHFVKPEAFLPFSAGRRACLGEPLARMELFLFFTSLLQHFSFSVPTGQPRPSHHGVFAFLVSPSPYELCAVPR
Method: as §3

[5] = tested on: L. donovani intracellular amastigotes; experiment: Intracellular amastigotes assay, L. donovani infecting THP-1 macrophages (image-based infection ratio); assay type: cell-based; conditions: Leishmania donovani, 96 h, intracellular amastigotes infecting THP-1 macrophages, 4 days incubation, read-out: L. donovani EC50 amastigote
Method: as §4, §5

L. major promastigote = experiment: Primary screening resazurin viability assay, L. major promastigotes; assay type: cell-based, Leishmania major; conditions: for EC50: Leishmania major, promastigotes; for Active compound selection in the 4,000-compound library screen: cut-off 70% proliferation inhibition at the lowest compound concentration (0.2–0.02 µM), duplicate, data not shown
Method: as §2
After compound addition to the assay plate (Evotec™ 384-well microplate, Germany), 20,000 L. major promastigote parasites from an exponential phase culture (∼10^7 parasites/mL) were diluted in M199, seeded in 50 µL per well using FlexDrop™ and incubated at 28°C for 28 hours, followed by the addition of 5 mM resazurin sodium salt (Sigma R7017, United States) and further incubation for 20 hours at 28°C. After a 48-hour exposure to compounds, the reference drug (EtBr) or control (1% DMSO), the parasites were fixed with 2% paraformaldehyde (PFA) and plates were read in Victor3™ (Perkin Elmer) at 530 nm (excitation) and 590 nm (emission). This fixation step is not necessary for resazurin readout, but allows flexibility in the automation schedule and increases assay robustness by decreasing metabolic variability between populations across wells and plates.
The effect of compounds on Leishmania viability was assessed by fluorometric measurement of resazurin reduction. […] Reference compounds for antileishmanial activity (EtBr, amphotericin B, miltefosine and paromomycin) were tested (Fig. 1B) as a step of the validation process. […] Assay validation was performed on three separate days using 33 microplates (384 wells/plate) containing only controls. […] After assay validation, we screened a 4,000-compound library containing a number of compounds with known pharmacological properties. […] This assay was done in duplicate and results of each concentration assay are represented as individual graphs in Fig. 1D.

[6] = promastigotes, 10-point dose response, 2-fold dilutions from 20 µM, read-out: L. donovani EC50 promastigote
[7] = 10-point dose response, 2-fold dilutions from 20 µM, read-out: L. major EC50 promastigote
[8] = Fig. 1B, HTS format, read-out: EC50 of reference compound, L. major (black line)
[9] = Fig. 1B, HTS format, promastigotes, read-out: EC50 of reference compound, L. donovani (grey dashed line)

COc1cc(/C=N/NC(=O)c2cccc(C)c2O)ccc1OCc1ccccc1 [CA272]
parent compound remaining after 30 minutes, human liver microsomes [1]: 77.8% | half-life at 2 µM ([1]; human, liver microsomes, first-order kinetics, read-out: theoretical half-life, human liver microsomes): 79.4 min | parent compound remaining, rat liver microsomes ([2]; NADPH, 30 minutes): 53.3% | half-life at 2 µM [2]: 31.8 min | EC50 (L. donovani promastigote; [6]): 2700 nM | EC50 (CYP3A4): 3410 nM | IC50 (CYP3A4): 3410 nM | EC50 [3]: 800 nM | CC50 [4]: > 10000 nM | EC50 (CYP2D6): > 10000 nM | IC50 (CYP2D6): > 10000 nM | EC50 [5]: 19000 nM | EC50 (L. major promastigote; [7]): 2700 nM

Cc1nc2c(Cl)cccc2c(O)c1CN1CCCCC1C (stereo not shown) [CH872]
parent compound remaining after 30 minutes, human liver microsomes [1]: 99.6% | theoretical half-life, human liver microsomes ([1]; first-order kinetics): long | time after which completely degraded, rat liver microsomes [2]: 25 min | half-life at 2 µM [2]: 4.1 min | EC50 (L. donovani promastigote; [6]): 50 nM | EC50 (CYP3A4): > 10000 nM | IC50 (CYP3A4): > 10000 nM | EC50 [3]: 300 nM | CC50 [4]: > 10000 nM | EC50 (CYP2D6): > 10000 nM | IC50 (CYP2D6): > 10000 nM | EC50 [5]: 60 nM | EC50 (L. major promastigote; [7]): 100 nM

CC[n+]1c(-c2ccccc2)c2cc(N)ccc2c2ccc(N)cc21 [EtBr, Ethidium bromide]
EC50 (L. donovani promastigote; read-out: EC50 of reference compound, L. donovani (grey dashed line)): 5 nM | EC50 (L. major promastigote; [8]): 14 nM

C[C@@H]1[C@H](O)[C@@H](C)/C=C/C=C/C=C/C=C/C=C/C=C/C=C/[C@H](O[C@@H]2O[C@H](C)[C@@H](O)[C@H](N)[C@@H]2O)C[C@@H]2O[C@](O)(C[C@@H](O)C[C@@H](O)[C@H](O)CC[C@@H](O)C[C@@H](O)CC(=O)O[C@H]1C)C[C@H](O)[C@H]2C(=O)O [amphotericin B, reference compound]
EC50 (L. donovani promastigote; [9]): 1300 nM | EC50 [3]: 1060 nM | EC50 [5]: 820 nM | EC50 (L. major promastigote; [8]): 3900 nM

COc1ccc(C[C@H]2NC[C@H](O)[C@H]2OC(C)=O)cc1 [anisomycin]
Active compound selection in the 4,000-compound library screen (L. major promastigote): active

COc1ccc2cc3[n+](cc2c1OC)CCc1cc2c(cc1-3)OCO2 [berberine chloride]
Active compound selection in the 4,000-compound library screen (L. major promastigote): active

O=C1OCCN1/N=C/c1ccc([N+](=O)[O-])o1 [furazolidone]
Active compound selection in the 4,000-compound library screen (L. major promastigote): active

CCCCCCCCCCCCCCCCOP(=O)([O-])OCC[N+](C)(C)C [miltefosine]
EC50 (L. donovani promastigote; [9]): 2700 nM | EC50 (L. major promastigote; [8]): 4700 nM

CC1CS(=O)(=O)CCN1/N=C/c1ccc([N+](=O)[O-])o1 (stereo not shown) [nifurtimox]
Active compound selection in the 4,000-compound library screen (L. major promastigote): active

NC(=O)N/N=C/c1ccc([N+](=O)[O-])o1 [nitrofural]
Active compound selection in the 4,000-compound library screen (L. major promastigote): active

NC[C@@H]1O[C@H](O[C@H]2[C@@H](O)[C@H](O[C@@H]3[C@@H](O)[C@H](N)C[C@H](N)[C@H]3O[C@H]3O[C@H](CO)[C@@H](O)[C@H](O)[C@H]3N)O[C@@H]2CO)[C@H](N)[C@@H](O)[C@@H]1O [paromomycin]
EC50 (L. donovani promastigote; [9]): 13000 nM | EC50 (L. major promastigote; [8]): 62500 nM

C=C1C(=O)O[C@H]2[C@H]1CC/C(C)=C/CC[C@@]1(C)O[C@@H]21 [parthenolide]
Active compound selection in the 4,000-compound library screen (L. major promastigote): active

N=C(N)c1ccc(OCCCCCOc2ccc(C(=N)N)cc2)cc1 [pentamidine isethionate]
Active compound selection in the 4,000-compound library screen (L. major promastigote): active
